Legend:
[1] = test system: Triticum aestivum; test: Drought stress test on wheat Part D, reduction in damage intensity from fresh weights; type: in vivo; conditions: efficacy = reduction in damage intensity (fresh weight) under drought stress, at least three repeats
Text: Wheat grains were sown in a standardized number in sandy loam soil plastic pots, covered with soil or sand and grown in a greenhouse under good growth conditions. Pots with uneven degrees of emergence were excluded prior to the start of the trial. The treatment with test substances was effected at the early leaf stage (BBCH10-BBCH13). To assure uniform water supply, the potted plants were supplied with water by dam irrigation prior to substance application. The inventive compounds were first formulated as wettable powders (WP) or dissolved in a solvent mixture. The further dilution was effected with water supplemented with 0.2% wetting agent (e.g. agrotin). The finished spray liquor was sprayed onto the green parts of the plant at an equivalent water application rate of 600 l/ha. Substance application was followed immediately by stress treatment of the plants. Drought stress was induced by gradual drying out under the following conditions: “Day”: 14 hours with illumination at 26-30° C. “Night”: 10 hours without illumination at 18-20° C. The duration of the respective stress phases was guided mainly by the condition of the stressed control plants. It was ended (by re-irrigating and transfer to a greenhouse with good growth conditions) as soon as irreversible damage was observed on the stressed control plants. The end of the stress phase was followed by an about 7-day recovery phase, during which the plants were once again kept under good growth conditions in a greenhouse. The exact duration of the recovery phase was variable for reasons related to the trial. At the end of the recovery phase, the fresh weights of the plant parts above ground were determined. By comparison with unstressed control plants which were kept under good growth conditions over the entire duration of the trial, percentage damage intensities were first calculated from the fresh weight values. The reduction in damage intensity resulting from treatment with test substance was then calculated by the following formula: [formula] EF: Efficacy DIs: Damage intensity of the stressed control plants DIt: Damage intensity of the stressed plants treated with test compound The values reported in table D-1 below are results from at least three repeats. BRSNS=Brassica napus TRZAS=Triticum aestivum

[2] = molecular target: T1, phosphatase ABI1 via the co-regulator RCAR11/PYR1 (Arabidopsis thaliana, UniProt O49686+P49597); test: In vitro inhibition of the phosphatase ABI1 via the co-regulator RCAR11/PYR1, MUP dephosphorylation; type: biochemical; design: dose or concentration left out as unconfirmed; conditions: in a solution of DMSO and water; fluorescence at 460 nm
T1 sequence (O49686 1-191): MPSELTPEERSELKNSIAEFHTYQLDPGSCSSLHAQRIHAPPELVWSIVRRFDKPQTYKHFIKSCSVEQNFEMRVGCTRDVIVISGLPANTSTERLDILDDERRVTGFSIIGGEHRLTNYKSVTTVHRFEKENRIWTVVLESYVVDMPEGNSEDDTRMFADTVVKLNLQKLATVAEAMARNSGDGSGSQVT
T1 sequence (P49597 1-434): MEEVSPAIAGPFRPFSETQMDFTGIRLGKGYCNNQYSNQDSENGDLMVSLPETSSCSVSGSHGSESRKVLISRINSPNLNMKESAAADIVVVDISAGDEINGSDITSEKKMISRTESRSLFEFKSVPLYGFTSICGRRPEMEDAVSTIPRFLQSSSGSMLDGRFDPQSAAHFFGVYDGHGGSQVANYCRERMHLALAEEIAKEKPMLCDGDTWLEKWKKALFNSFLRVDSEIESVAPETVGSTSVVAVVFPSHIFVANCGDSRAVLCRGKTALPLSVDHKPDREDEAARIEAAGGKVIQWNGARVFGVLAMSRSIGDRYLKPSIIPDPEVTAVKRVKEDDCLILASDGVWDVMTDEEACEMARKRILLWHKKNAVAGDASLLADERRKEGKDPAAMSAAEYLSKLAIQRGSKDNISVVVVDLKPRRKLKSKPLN
Text: Effects of the phytohormone abscisic acid (ABA) on the behavior of plants under abiotic stress and the mechanism of action of ABA are described in the literature (cf. Abrams et al., WO97/23441, Park et al. Science, 2009, 324, 1068; Grill et al. Science, 2009, 324, 1064; Tanokura et al. Biophysics, 2011, 7, 123; Schroeder et al. Plant J. 2010, 61, 290). Therefore, it is possible with the aid of a suitable in vitro test system to derive a correlation between the action of ABA and the stress response of a plant under abiotic stress. In the event of water deficiency (drought stress), plants form the phytohormone abscisic acid (ABA). This binds, along with a co-regulator (Regulatory Component of ABA-Receptor=RCAR according to Grill et al. Science, 2009, 324, 1064 or PYR/PYL according to Cutler et al. Science, 2009, 324, 1068), to a phosphatase (e.g. ABI1, a type 2C protein phosphatase, also abbreviated to PP2C) and inhibits its activity. As a result, a “downstream” kinase (e.g. SnRK2) is no longer dephosphorylated. This kinase, which is thus active, via phosphorylation of transcription factors (e.g. AREB/ABF, cf. Yoshida et al., 2010, 61, 672), switches on a genetic protection program to increase drought stress tolerance. The assay described hereinafter utilizes the inhibition of the phosphatase ABI1 via the co-regulator RCAR11/PYR1 aus Arabidopsis thaliana. For the determination of activity, the dephosphorylation of 4-methylumbelliferyl phosphate (MUP) was measured at 460 nm. The in vitro assay was conducted in Greiner 384-well PS microplates F-well, using two controls: a) 0.5% dimethyl sulfoxide (DMSO) and b) 5 μM abscisic acid (ABA). The assay described here was generally conducted with substance concentrations of the appropriate chemical test substances in a concentration range of 0.1 μM to 100 μM in a solution of DMSO and water. The substance solution thus obtained, if necessary, was stirred with esterase from porcine liver (EC 3.1.1.1) at room temperature for 3 h and centrifuged at 4000 rpm for 30 min. A total volume of 45 μl was introduced into each cavity of the microplate, having the following composition: • 1) 5 μl of substance solution, i.e. a) DMSO 5% or b) abscisic acid solution or c) the corresponding example compound of the general formula (I) dissolved in 5% DMSO. • 2) 20 μl of enzyme buffer mix, composed of a) 40% by vol. of enzyme buffer (10 mL contain equal proportions by volume of 500 mM Tris-HCl pH 8, 500 mM NaCl, 3.33 mM MnCl2, 40 mM dithiothreitol (DTT)), b) 4% by vol. of ABI1 dilution (protein stock solution was diluted so as to give, after addition, a final concentration in the assay of 0.15 μg ABI1/well), c) 4% by vol. of RCAR11 dilution (enzyme stock was diluted so as to give, on addition of the dilution to the enzyme buffer mix, a final concentration in the assay of 0.30 μg enzyme/well), d) 5% by vol. of Tween20 (1%), e) 47% by vol. H2O bi-dist. • 3) 20 μl of substrate mix, composed of a) 10% by vol. of 500 mM Tris-HCl pH8, b) 10% by vol. of 500 mM NaCl, c) 10% by vol. of 3.33 mM MnCl2, d) 5% by vol. of 25 mM MUP, 5% by vol. of Tween20 (1%), 60% by vol. of H2O bi-dist.
Enzyme buffer mix and substrate mix were made up 5 minutes prior to the addition and warmed to a temperature of 35° C. On completion of pipetting of all the solutions and on completion of mixing, the plate was incubated at 35° C. for 20 minutes. Finally, a relative fluorescence measurement was made at 35° C. with a BMG Labtech “POLARstar Optima” microplate reader using a 340/10 nm excitation filter and a 460 nm emission filter. The efficacy of the compounds of the general formula (I) is reported in the table which follows using abscisic acid […] as comparative substance (No. 37) according to the following classification: ++++ (inhibition≧90%), +++ (90%>inhibition≧70%), ++ (70%>inhibition≧50%), + (50%>inhibition≧30%). […]

[3] = test system: Triticum aestivum; test: Drought stress greenhouse test Part C, visual scoring vs stressed control plants; type: in vivo; conditions: spray application 250 g/ha, efficacy range of 3-4 pots
Method: Seeds of monocotyledonous and dicotyledonous crop plants were sown in sandy loam in plastic or wood-fiber pots, covered with soil or sand and cultivated in a greenhouse under good growth conditions. The trial plants were treated at the early leaf stage (BBCH10-BBCH13). To assure uniform water supply before commencement of stress, the potted plants were supplied with water by dam irrigation prior to substance application. The inventive compounds were first formulated as wettable powders (WP) or dissolved in a solvent mixture. The further dilution was effected with water supplemented with 0.2% wetting agent (e.g. agrotin). The finished spray liquor was sprayed onto the green parts of the plant at an equivalent water application rate of 600 l/ha. Substance application was followed immediately by stress treatment of the plants. For this purpose, the wood-fiber pots were transferred in plastic inserts in order to prevent them from subsequently drying out too quickly. Drought stress was induced by gradual drying out under the following conditions: “Day”: 14 hours with illumination at 26-30° C. “Night”: 10 hours without illumination at 18-20° C. The duration of the respective stress phases was guided mainly by the condition of the stressed control plants. It was ended (by re-irrigating and transfer to a greenhouse with good growth conditions) as soon as irreversible damage was observed on the stressed control plants. The end of the stress phase was followed by an about 4-7-day recovery phase, during which the plants were once again kept under good growth conditions in a greenhouse. The duration of the recovery phase was guided mainly by when the trial plants had attained a state which enabled visual scoring of potential effects, and was therefore variable. Once this juncture had been reached, the appearance of the plants treated with test substances was recorded in comparison to the stressed control plants by the following categories: [table] For each substance and dosage, 3-4 pots were treated and evaluated. […] BRSNS=Brassica napus TRZAS=Triticum aestivum

| Structure (SMILES) | EF [%] (TRZAS) ([1]; 250 g/ha) | ABI1 inhibition [2] | other results |
| --- | --- | --- | --- |
| COC(=O)CCN1C(=O)CCc2cc(NS(=O)(=O)Cc3cccc(C)c3)ccc21 [A51-153] | 16% | ++ (70%>inhibition≧50%) |  |
| COC(=O)CCN1C(=O)CCc2cc(NS(=O)(=O)Cc3cccc(Cl)c3)ccc21 [A51-166] | 20% | ++ (70%>inhibition≧50%) |  |
| COC(=O)CN1C(=O)CCc2cc(NS(=O)(=O)Cc3ccccc3[N+](=O)[O-])ccc21 [A50-177] | 19% | ++ (70%>inhibition≧50%) |  |
| O=C1CC2(CCC2)c2cc(NS(=O)(=O)Cc3ccc(Cl)cc3)ccc2N1CC1CC1 [J3-165] |  |  | Effect (TRZAS) [3]: 10-20 |
| COCCN1C(=O)CC2(CCCCC2)c2cc(NS(=O)(=O)Cc3cccc(Cl)c3)ccc21 [I5-166] |  |  | Effect (TRZAS) [3]: 10-20 |
| CCOC(=O)CCN1C(=O)CC(C)(C)c2cc(NS(=O)(=O)Cc3ccc(Br)cc3)ccc21 [B52-172] | 14% |  |  |
| COC(=O)CN1C(=O)CC(C)(C)c2cc(NS(=O)(=O)Cc3ccc([N+](=O)[O-])cc3)ccc21 [B50-175] |  |  | EF [%] (TRZAS) ([1]; 25 g/ha): 12% |
| COC(=O)CN1C(=O)CC(C)(C)c2cc(NS(=O)(=O)Cc3ccc(C(F)(F)F)cc3)ccc21 [B50-178] | 20% |  |  |
| N#CCCCN1C(=O)CCc2cc(NS(=O)(=O)Cc3cccc(Cl)c3)ccc21 [A48-166] | 13% | ++ (70%>inhibition≧50%) |  |
| COC(=O)CCN1C(=O)CC(C)(C)c2cc(NS(=O)(=O)Cc3cccc(Br)c3)ccc21 [B51-173] |  |  | EF [%] (TRZAS) ([1]; 25 g/ha): 16% |
| COC(=O)CN1C(=O)CC(C)(C)c2cc(NS(=O)(=O)Cc3ccccc3Cl)ccc21 [B50-168] | 14% |  |  |
| COC(=O)CN1C(=O)CC(C)(C)c2cc(NS(=O)(=O)Cc3ccc(F)cc3)ccc21 [B50-158] | 18% |  |  |
| CCOC(=O)CCN1C(=O)CC(C)(C)c2cc(NS(=O)(=O)Cc3ccc(F)cc3)ccc21 [B52-158] |  |  | EF [%] (TRZAS) ([1]; 25 g/ha): 10% |
| COC(=O)CCN1C(=O)CC(C)(C)c2cc(NS(=O)(=O)Cc3ccc(F)cc3)ccc21 [B51-158] |  |  | EF [%] (TRZAS) ([1]; 25 g/ha): 13% |
| COC(=O)CCN1C(=O)CCc2cc(NS(=O)(=O)Cc3ccc(C#N)cc3)ccc21 [A51-181] | 15% | ++++ (inhibition≧90%) |  |
| COC(=O)CN1C(=O)CC(C)(C)c2cc(NS(=O)(=O)Cc3cccc(C(F)(F)F)c3)ccc21 [B50-179] | 15% |  |  |
| CCOC(=O)CCN1C(=O)CC(C)(C)c2cc(NS(=O)(=O)Cc3cccc(Cl)c3)ccc21 [B52-166] | 14% |  |  |
| CCOC(=O)CCN1C(=O)CC(C)(C)c2cc(NS(=O)(=O)Cc3ccc([N+](=O)[O-])cc3)ccc21 [B52-175] | 10% |  |  |
| COC(=O)CCN1C(=O)CCc2cc(NS(=O)(=O)Cc3ccc(Cl)cc3)ccc21 [A51-165] |  | ++++ (inhibition≧90%) | EF [%] (TRZAS) ([1]; 25 g/ha): 18% |
| COC(=O)CCN1C(=O)CCc2cc(NS(=O)(=O)Cc3ccc(C(F)(F)F)cc3)ccc21 [A51-178] |  | ++++ (inhibition≧90%) | EF [%] (TRZAS) ([1]; 25 g/ha): 10% |
| CCOC(=O)CCN1C(=O)CC(C)(C)c2cc(NS(=O)(=O)Cc3cccc(Br)c3)ccc21 [B52-173] |  |  | EF [%] (TRZAS) ([1]; 25 g/ha): 14% |
| O=C1CCc2cc(NS(=O)(=O)Cc3cccc(Br)c3)ccc2N1CC(F)(F)F [A2-173] |  | +++ (90%>inhibition≧70%) |  |
| COC(=O)CN1C(=O)CCc2cc(NS(=O)(=O)Cc3ccc(Cl)cc3)ccc21 [A50-165] |  | ++++ (inhibition≧90%) |  |
| O=C1CCc2cc(NS(=O)(=O)Cc3ccc(F)cc3)ccc2N1CC1CC1(Cl)Cl (racemic) [A32-158] |  | + (50%>inhibition≧30%) |  |

— patent US20170027172A1, “USE OF SUBSTITUTE OXO TETRAHYDROQUINOLINE SULFONAMIDES OR SALTS THEREOF FOR RAISING STRESS TOLERANCE OF PLANTS” (BAYER CROPSCIENCE AKTIENGESELLSCHAFT, priority 2014, published 2017)
